Experiment: Solubility in deuterium water
Format: physicochemical
Protocol: For reference, the above nigerosyl adenosine was observed as a minor peak with a retention time of about 22 to 23 min between the elution peak of adenosine and that of 3′-glucosyladenosine other than the elution peaks of 5′- and 3′-glucosyladenosines and adenosine. When the fraction corresponding to such a minor peak was collected and subjected to mass spectrum (MS) analysis in usual manner, it was calculated to have a molecular weight of […] and judged to be a compound composed of two molecules of glucose bound to adenosine. Using the collected fraction and based on the chemical shift (see Table 13) of the carbons and protons of the fraction on MNR analysis under the following conditions, the substance contained in the fraction was identified as 5′-nigerosyladenosine (α-D-glucopyranosyl-(1→3)-α-D-glucopyranosyl-(1→5′)-adenosine; 5′-α-nigerosyladenosine). Since 5′-nigerosyladenosine dissolves in deuterium water in an amount of at least 6 w/v %, it has a higher solubility in aqueous media than 3′-glucosyladenosine. The carbon chemical shifts of adenosine and nigerose were obtained from the spectrum data base of organic compounds opened by The National Institute of Advanced Industrial Science and Technology (AIST) (SDBS; http://riodb01.ibase.aist.go.jp/sdbs/cgi-bin/direct_frame_top.cgi).

Amount that dissolves in deuterium water: at least 6 w/v %
SMILES: Nc1ncnc2c1ncn2[C@@H]1O[C@H](CO[C@H]2O[C@H](CO)[C@@H](O)[C@H](O[C@H]3O[C@H](CO)[C@@H](O)[C@H](O)[C@H]3O)[C@H]2O)[C@@H](O)[C@H]1O [5′-nigerosyladenosine, α-D-glucopyranosyl-(1→3)-α-D-glucopyranosyl-(1→5′)-adenosine]

Source: US9492368B2, “External preparation for skin” (HAYASHIBARA CO., LTD., priority 2011, dated 2016)
